Results: US9868748B2, “Thiazolopyrrolidine inhibitors of ROR- γ” (Vitae Pharmaceuticals, Inc., priority 2013, dated 2018)
Read-outs that look alike come from different tables or passages of the source.

How the values were obtained:
[1] = target: recombinant RORγ Ligand Binding Domain (LBD) protein (Homo sapiens (Human), UniProt P51449); assay: Radio-Ligand RORγ Binding Assay (Assay 1); settings: competition with 25-hydroxy [26,27-3H]-cholesterol, SPA, read-out: RORγ Binding Ki Range*
How it was run: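 Scintillation proximity competition binding of 8.6 nM stock 25-hydroxy[26,27-3H]cholesterol to 24 nM stock 6×His-GST-tagged human RORγ LBD, in 50 mM HEPES pH 7.4 with NaCl, MgCl2, glycerol, CHAPS, β-octylglucopyranoside and DTT, room temperature. Inhibition referenced to DMSO and 10 μM T0901317; IC50 by four-parameter fit, converted to Ki using radioligand concentration and KD.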

[2] = target: full-length RORγt in Jurkat cells (Homo sapiens (Human), UniProt P51449); assay: RORγt 5xRORE Assay in Jurkat Cells (Assay 2); type: cell-based; settings: Nanoluc luciferase reporter, 16-18 hrs
How it was run: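 Jurkat cells co-transfected with full-length RORγt expression plasmid and a 5×RORE-driven secreted Nanoluc reporter, then plated at 80,000 cells/well in phenol-red-free RPMI with 10% delipidated FBS. Compounds added at 0.1% DMSO for 16–18 h at 37 °C; supernatant luciferase read for inverse agonism.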

[3] = Table 9, read-out: RORγt5X IC50 Range*
[4] = Table 8, read-out: RORγt5X IC50 Range*

Chain of full-length RORγt in Jurkat cells (P51449 other isoform, or with tags, fused parts or gaps): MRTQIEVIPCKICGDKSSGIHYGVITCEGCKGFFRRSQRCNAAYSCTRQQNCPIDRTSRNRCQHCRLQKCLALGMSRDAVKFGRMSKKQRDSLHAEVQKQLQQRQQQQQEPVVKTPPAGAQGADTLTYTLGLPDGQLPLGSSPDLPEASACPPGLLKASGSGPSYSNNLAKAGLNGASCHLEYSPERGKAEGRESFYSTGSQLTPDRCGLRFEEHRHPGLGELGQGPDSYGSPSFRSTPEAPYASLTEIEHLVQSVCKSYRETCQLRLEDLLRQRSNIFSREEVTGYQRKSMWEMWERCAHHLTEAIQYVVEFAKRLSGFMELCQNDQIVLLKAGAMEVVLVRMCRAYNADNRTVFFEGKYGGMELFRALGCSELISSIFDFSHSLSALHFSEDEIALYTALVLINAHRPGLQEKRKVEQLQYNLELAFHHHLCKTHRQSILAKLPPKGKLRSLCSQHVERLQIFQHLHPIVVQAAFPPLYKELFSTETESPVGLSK
Chain of recombinant RORγ Ligand Binding Domain (LBD) protein (P51449 269-508): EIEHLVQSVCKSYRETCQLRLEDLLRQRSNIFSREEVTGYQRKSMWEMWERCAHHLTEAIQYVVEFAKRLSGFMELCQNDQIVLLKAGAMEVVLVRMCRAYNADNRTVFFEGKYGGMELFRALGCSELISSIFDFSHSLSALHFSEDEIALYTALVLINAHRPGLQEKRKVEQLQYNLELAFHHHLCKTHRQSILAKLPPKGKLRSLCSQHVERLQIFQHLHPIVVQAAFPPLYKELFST

Ki ([1]; Table 9) [nM] | IC50 [2, 3] [nM] | Ki ([1]; Table 8) [nM] | IC50 [2, 4] [nM] | Structure (SMILES)
100 to 1000 | 100 to 1000 |  |  | CCS(=O)(=O)c1ccc(CNC(=O)c2nc3c(s2)CN(Cc2ccc(C(F)(F)F)nc2)[C@H]3C(C)C)cc1
< 100 | < 100 |  |  | CCS(=O)(=O)c1ccc(CC(=O)Nc2nc3c(s2)CN([C@H]2COc4cc(Cl)ccc42)[C@H]3C(C)C)cc1 (relative stereo)
< 100 | > 1000 |  |  | CCS(=O)(=O)c1ccc(CC(=O)Nc2nc3c(s2)CN([C@H](C)Cc2ccc(Cl)cc2)[C@H]3C(C)C)cc1 (single isomer, unassigned)
 |  | < 100 | < 100 | CCS(=O)(=O)c1ccc(CC(=O)Nc2nc3c(s2)CN(Cc2ccc(C(F)(F)F)c(C)n2)[C@H]3C(C)C)cc1 [I-A33]
 |  | < 100 | < 100 | CCS(=O)(=O)c1ccc(CC(=O)Nc2nc3c(s2)CN(Cc2ncc(C#N)cc2F)[C@H]3C(C)C)cc1 [I-A46]
< 100 | 100 to 1000 |  |  | CCS(=O)(=O)c1ccc(CC(=O)Nc2nc3c(s2)C(C)N(Cc2ccc(C#N)cc2)[C@H]3C(C)C)cc1 (stereo partly shown)
< 100 | 100 to 1000 |  |  | CCS(=O)(=O)c1ccc(CC(=O)Nc2nc3c(s2)CN(C2CCC(C(F)(F)F)CC2)[C@H]3C(C)C)cc1 (stereo partly shown)
< 100 | 100 to 1000 |  |  | CC(C)[C@H]1c2nc(NC(=O)Cc3ccc(S(C)(=O)=O)cc3)sc2CN1[C@H](C)c1ccc(Cl)cn1 (single isomer, unassigned)
100 to 1000 | > 1000 |  |  | CCS(=O)(=O)c1ccc(CC(=O)Nc2nc3c(s2)CN(Cc2cccc(S(C)(=O)=O)c2)[C@@H]3C(C)C)cc1
< 100 | > 1000 |  |  | CCS(=O)(=O)c1ccc(CC(=O)Nc2nc3c(s2)CN(C(C)c2ccc(F)cc2)[C@@H]3C(C)C)cc1 (stereo partly shown)
< 100 | > 1000 |  |  | CCS(=O)(=O)c1ccc(CC(=O)Nc2nc3c(s2)CN([C@H](C)Cc2ccccc2C(F)(F)F)[C@@H]3C(C)C)cc1
100 to 1000 | 100 to 1000 |  |  | CC(C)[C@@H]1c2nc(NC(=O)Cc3ccc(S(C)(=O)=O)cc3)sc2CN1[C@H](C)c1ccc(C(F)(F)F)cc1 (single isomer, unassigned)
< 100 | > 1000 |  |  | CC[C@H]1c2nc(NC(=O)Cc3ccc(S(=O)(=O)CC)cc3)sc2CN1[C@@H](C)Cc1ccccc1
 |  | < 100 | < 100 | CCS(=O)(=O)c1ccc(CC(=O)Nc2nc3c(s2)CN(Cc2ccc(C(F)(F)F)cc2)[C@H]3C(C)C)cc1 [I-A2, (S)-2-(4-(ethylsulfonyl)phenyl)-N-(4-isopropyl-5-(4-(trifluoromethyl)benzyl)-5,6-dihydro-4H-pyrrolo[3,4-d]thiazol-2-yl)acetamide]
 |  | < 100 | < 100 | CCS(=O)(=O)c1ccc(CC(=O)Nc2nc3c(s2)CN(Cc2cnc(C(F)(F)F)nc2)[C@H]3C(C)C)cc1 [I-A58]
100 to 1000 | > 1000 |  |  | CC(C)[C@@H]1c2nc(NC(=O)Cc3ccc(S(C)(=O)=O)cc3)sc2CN1[C@H](C)c1ccc(OC(F)(F)F)cc1 (single isomer, unassigned)
< 100 | > 1000 |  |  | CCS(=O)(=O)c1ccc(CC(=O)Nc2nc3c(s2)CN(C[C@@H]2CC[C@H](C(F)(F)F)OC2)[C@H]3C(C)C)cc1 (relative stereo)
< 100 | > 1000 |  |  | CCS(=O)(=O)c1ccc(CC(=O)Nc2nc3c(s2)CN(CCc2ccc(Cl)cc2)[C@H]3C(C)C)cc1
< 100 | > 1000 |  |  | CC[C@@H]1c2nc(NC(=O)Cc3ccc(S(=O)(=O)CC)cc3)sc2CN1Cc1ccccc1F
 |  | < 100 | < 100 | CCS(=O)(=O)c1ccc(CC(=O)Nc2nc3c(s2)CN([C@@H](C)c2ccc(C(F)(F)F)cc2)[C@H]3C(C)C)cc1 [I-A35]
 |  | < 100 | < 100 | CCS(=O)(=O)c1ccc(CC(=O)Nc2nc3c(s2)CN(Cc2ncc(C(F)(F)F)cn2)[C@H]3C(C)C)cc1 [I-A6]
100 to 1000 | > 1000 |  |  | CC(C)[C@@H]1c2nc(NC(=O)Cc3ccc(S(C)(=O)=O)cc3)sc2CN1Cc1ccc(OC(F)(F)F)cc1
< 100 | > 1000 |  |  | CCS(=O)(=O)c1ccc(CC(=O)Nc2nc3c(s2)CN(C[C@H]2CC[C@@H](C(F)(F)F)OC2)[C@H]3C(C)C)cc1 (single isomer, unassigned)
< 100 | > 1000 |  |  | CCS(=O)(=O)c1ccc(CC(=O)Nc2nc3c(s2)CN(Cc2cc(Cl)ccc2Cl)[C@@H]3C(C)C)cc1
< 100 | < 100 |  |  | CCS(=O)(=O)c1ccc(CC(=O)Nc2nc3c(s2)CN(Cc2ccc(C(F)(F)F)nc2)C3C(C)C)nc1 (stereo not shown)
< 100 | 100 to 1000 |  |  | CCS(=O)(=O)c1ccc(CC(=O)Nc2nc3c(s2)CN(CC2CN(CC(F)(F)F)C2)[C@H]3C(C)C)cc1

Continued, compound first:

Structure (SMILES) | Ki ([1]; Table 9) [nM] | IC50 [2, 3] [nM] | Ki ([1]; Table 8) [nM] | IC50 [2, 4] [nM]
CCS(=O)(=O)c1cnc(CC(=O)Nc2nc3c(s2)CN(Cc2ccc(-c4nnn(C)n4)cc2)[C@H]3C(C)C)nc1 | < 100 | 100 to 1000 |  | 
CC(C)[C@H]1c2nc(NC(=O)Cc3ccc(S(C)(=O)=O)cc3)sc2CN1Cc1ccc(C#N)cc1 [I-B18] |  |  | < 100 | < 100
CCS(=O)(=O)c1ccc(CC(=O)Nc2nc3c(s2)CN(C[C@@H]2CN(C(=O)OC(C)(C)C)CCO2)[C@H]3C(C)C)cc1 [I-A43] |  |  | < 100 | < 100
CC[C@@]1(C)c2nc(NC(=O)Cc3ccc(S(=O)(=O)CC)cc3)sc2CN1Cc1ccc(Cl)cc1 | < 100 | < 100 |  | 
CCS(=O)(=O)c1ccc(CC(=O)Nc2nc3c(s2)CN(C[C@H]2CN(C(=O)OC(C)(C)C)CCO2)[C@H]3C(C)C)cc1 [I-A41] |  |  | < 100 | < 100
CC(C)[C@H]1c2nc(NC(=O)Cc3ccc(S(C)(=O)=O)cc3)sc2CN1Cc1ccn(C(F)F)c(=O)c1 | < 100 | 100 to 1000 |  | 
CC(C)[C@H]1c2nc(NS(=O)(=O)c3ccc(CC(=O)O)cc3)sc2CN1Cc1ccc(C#N)c(F)c1 [I-D2, (S)-2-(4-(N-(5-(4-cyano-3-fluorobenzyl)-4-isopropyl-5,6-dihydro-4H-pyrrolo[3,4-d]thiazol-2-yl)sulfamoyl)phenyl)acetic acid] |  |  | < 100 | > 1000
CC(C)[C@H]1c2nc(NC(=O)Cc3ccc(-c4nnn(C)n4)cc3)sc2CN1Cc1ccc(Cl)cc1 | 100 to 1000 | 100 to 1000 |  | 
CC(C)[C@H]1c2nc(NC(=O)Cc3ccc(S(C)(=O)=O)cc3)sc2CN1Cc1ccc(C#N)c(Cl)c1 [I-B8] |  |  | < 100 | < 100
CC(C)[C@H]1c2nc(NC(=O)Cc3ccc(C#N)cc3)sc2CN1Cc1ccc(C#N)cc1 | < 100 | 100 to 1000 |  | 
CCS(=O)(=O)c1ccc(CC(=O)Sc2nc3c(s2)CN(Cc2ccc(Cl)cc2)C3(C)C)cc1 | < 100 | 100 to 1000 |  | 
CC(C)[C@H]1c2nc(NC(=O)Cc3ccc(C#N)cc3)sc2CN1Cc1ccc(Cl)cc1 [I-E1, (S)—N-(5-(4-chlorobenzyl)-4-isopropyl-5,6-dihydro-4H-pyrrolo[3,4-d]thiazol-2-yl)-2-(4-cyanophenyl)acetamide] |  |  | < 100 | 100 to 1000
CCS(=O)(=O)c1ccc(CC(=O)Nc2nc3c(s2)CN(C[C@H]2CCCCO2)[C@H]3C(C)C)cc1 (relative stereo) | < 100 | > 1000 |  | 
CC(C)[C@H]1c2nc(NS(=O)(=O)c3ccc(CC(=O)O)cc3)sc2CN1Cc1ccc(C#N)c(F)c1 [drawing 411] | < 100 | > 1000 |  | 
CC(C)[C@H]1c2nc(NC(=O)Cc3ccc(C#N)cc3)sc2CN1Cc1ccc(C#N)c(OC(F)F)c1 | < 100 | 100 to 1000 |  | 
CC[C@H]1c2nc(NC(=O)Cc3ccc(CO)cc3)sc2CN1Cc1ccc(Cl)cc1 | < 100 | 100 to 1000 |  | 
CCS(=O)(=O)c1ccc(CC(=O)Nc2nc3c(s2)CN(Cc2ccc(OC(F)(F)F)c(Cl)c2)[C@H]3C(C)C)nc1 | < 100 | < 100 |  | 
CC(C)[C@H]1c2nc(C(=O)NCc3ccc(S(C)(=O)=O)cc3)sc2CN1Cc1ccc(C(F)(F)F)cc1 | < 100 | < 100 |  | 
CCS(=O)(=O)c1ccc(CC(=O)Nc2nc3c(s2)CN(Cc2ccc(C#N)c(Cl)c2)[C@H]3C(C)C)nc1 [I-C10] |  |  | < 100 | < 100
CC(C)[C@H]1c2nc(C(=O)NCc3ccc(S(C)(=O)=O)cc3)sc2CN1Cc1ccc(Cl)cn1 [drawing 378] | < 100 | 100 to 1000 |  | 
CCS(=O)(=O)c1ccc(CC(=O)Nc2nc3c(s2)CN(CC2CCn4c(C)nnc4C2)[C@H]3C(C)C)cc1 (stereo partly shown) | 100 to 1000 | > 1000 |  | 
CCS(=O)(=O)c1ccc(CC(=O)Nc2nc3c(s2)CN(C[C@H]2CC[C@@H](C(=O)O)CC2)[C@H]3C(C)C)cc1 | 100 to 1000 | > 1000 |  | 
CCS(=O)(=O)c1ccc(CNC(=O)c2nc3c(s2)CN(CC2CN(CC(F)(F)F)CCO2)[C@H]3C(C)C)cc1 (stereo partly shown) | < 100 | > 1000 |  | 
CCS(=O)(=O)c1ccc(CC(=O)Nc2nc3c(s2)CN(C[C@H]2CC[C@](C)(C#N)CC2)[C@H]3C(C)C)cc1 (single isomer, unassigned) | < 100 | > 1000 |  | 
CC(C)[C@H]1c2nc(NC(=O)Cc3ccc(S(C)(=O)=O)cc3)sc2CN1Cc1ccc(-c2nnn[nH]2)cc1 | 100 to 1000 | > 1000 |  | 
CCS(=O)(=O)c1ccc(CC(=O)Nc2nc3c(s2)CN(C[C@H]2CC[C@H](C(F)(F)F)NC2)[C@H]3C(C)C)nc1 (single isomer, unassigned) [drawing 211] | 100 to 1000 | 100 to 1000 |  | 
CCS(=O)(=O)c1ccc(CC(=O)Nc2nc3c(s2)CN(C[C@H]2CC[C@H](c4nnc(C)o4)CC2)[C@H]3C(C)C)cc1 [I-A23] |  |  | < 100 | < 100
